Assays:
HepG2 cells = experiment: Intracellular H2S release with WSP-1 probe; format: cell-based, human; conditions: for intracellular H2S release, WSP-1 fluorescence signal vs vehicle: HepG2, tested concentrations 100-300 μM, 60 min
Description: All cell culture reagents were purchased from S.I.A.L. S.r.l. (Rome, Italy). WSP-1 (Washington State Probe-1, 3′-methoxy-3-oxo-3H-spiro[isobenzofuran-1,9′-xanthen]-6′-yl 2-(pyridine-2-yl-disulfanyl benzoate), was obtained from Cayman Chemical (Cayman, Ann Arbor, MI, USA). HepG2, human hepatocellular carcinoma cells, was obtained from American Type Culture Collection (ATCC, Bethesda, MD, USA). Human hepatocellular carcinoma cells (HepG2) were cultured in Minimum Essential Eagle’s Medium. This medium was supplemented with 10% (v/v) Fetal Bovine Serum, 1% (v/v) Glutamine and 1% (v/v) Penicillin-Streptomycin, 1% non-essential amino acids. Cells were cultivated at 37 °C with 5% CO2 at saturated humidity.
These experiments were carried out as already described. HepG2 cells were cultured up to about 90% confluence, and 24 h before the experiment cells were seeded into a 96-well flat bottom black plate (50,000 cells per well). After 24 h, the medium was replaced and cells were incubated at 37 °C for 30 min with a 10 mM solution of the fluorescent WSP-1 probe, which is highly sensitive for H2S detection. After incubation, the supernatant was removed and replaced with different concentrations (100, 200, and 300 µM) of the tested compounds dissolved in HBSS buffer. […] ADT 100 µM was used as a slow H2S-donor reference compound. Data were analyzed by one-way ANOVA for repeated measures, followed by post hoc Bonferroni’s multiple comparison test. Results are expressed as mean ± SEM of 3 independent experiments in triplicate. Statistical significance was accepted at a level of p < 0.05.
Next, we assessed the intracellular H2S release of thioureas and thioamides in HepG2 cells. The compounds were tested at different concentrations (100–300 μM) to evaluate if the release was dose-dependent. We also assayed ADT-OH and TIA as reference H2S-donors, and 3a as a negative control. The results were normalized to the fluorescence signal obtained with 100 μM ADT-OH.

IL-18 = IL-18 ELISA in medium of microglial cultures; format: cell-based, mouse; conditions: 1 μM pretreatment 1 h, then LPS 0.1 μg/mL 24 h
Description: Primary microglial cell cultures were derived from the cortices of 1–2-day-old mouse pups (1pup/1 brain/1 flask). After decapitation, the brains were extracted and immediately placed in cold Hanks’ Balanced Salt Solution (HBSS, Gibco, New York, NY, USA) on ice. The brains were washed at least three times with 7 mL of HBSS and then transferred to 10 mL of fresh culture media consisting of Dulbecco’s Modified Eagle Medium (DMEM) with GlutaMax and high glucose (4.5 g/L) (Gibco, New York, NY, USA) on ice. The tissue was minced and incubated in HBSS containing glucose, bovine serum albumin (BSA; Sigma-Aldrich, St. Louis, MO, USA), and HEPES (Gibco, New York, NY, USA) with 0.025% trypsin at 37 °C for 20 min. […] The purity of microglial cell cultures was assessed as we have shown previously. […]
To assess the effect of test compounds on IL-18, IL-6, and IL-10 levels, the medium of microglial cell cultures was collected 24 h after LPS treatment. The protein levels of the cytokines IL-18 (Mouse interleukin 18 ELISA kit), IL-6 (Mouse interleukin 6 ELISA kit), and IL-10 (Mouse interleukin 10 ELISA kit; all obtained from FineTest, Wuhan, China) were measured using commercially available enzyme-linked immunosorbent assay kits according to the manufacturer’s instructions. […]

FPR2 = target: T1, FPR2 (Homo sapiens, UniProt P25090); experiment: FPR2 desensitization: inhibition of WKYMVM-induced Ca2+ mobilization in FPR2-HL60 cells; format: cell-based; parameters: expressed in transfected cells; host or cells: HL-60 cells; conditions: 10 min preincubation, then 5 nM WKYMVM
T1 sequence (P25090 1-351): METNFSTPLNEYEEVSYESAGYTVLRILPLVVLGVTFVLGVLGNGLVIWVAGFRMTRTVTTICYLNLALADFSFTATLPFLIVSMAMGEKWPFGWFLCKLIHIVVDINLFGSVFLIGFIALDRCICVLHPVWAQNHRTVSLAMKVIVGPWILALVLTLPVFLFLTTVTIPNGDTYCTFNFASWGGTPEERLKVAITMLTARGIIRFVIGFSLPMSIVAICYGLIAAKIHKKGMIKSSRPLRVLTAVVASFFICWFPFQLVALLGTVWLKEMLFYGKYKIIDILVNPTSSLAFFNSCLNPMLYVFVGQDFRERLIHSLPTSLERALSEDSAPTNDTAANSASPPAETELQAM
From the text: Finally, we assessed the ability of compounds to induce receptor desensitization at FPR2 by measuring the inhibition of Ca^2+ mobilization induced by subsequent treatment with a standard FPR2 agonist (IC50, Table 1) because FPR2 undergoes homologous desensitization after stimulation with agonists, resulting in functional antagonism (IC50, Table 1). […] We also evaluated the effects of the thiourea and thioamide derivatives on Ca^2+ mobilization in FPR1-HL60-transfected cells after stimulation with the FPR1 agonist (IC50, Table 1).

Structure (SMILES) | intracellular level of H2S vs reference H2S donor ADT (HepG2 cells; HepG2, at 200 and 300 μM, p < 0.001 vs. ADT) | intracellular H2S release, WSP-1 fluorescence signal vs vehicle (HepG2 cells) | levels of H2S release in HepG2 cells (HepG2 cells; summary of WSP-1 results) | LPS-induced increase of IL-18 level (IL-18) | Ca2+ Mobilization HL60-FPR2 IC50 (FPR2 desensitization) (FPR2) | IC50 (FPR2)
N#Cc1ccc(C[C@H](NC(=O)Nc2ccc(F)cc2)C(=S)N2CCc3ccccc32)cc1 [7b, (S)-1-[3-(4-Cyanophenyl)-1-(indolin-1-yl)-1-thioxopropan-2-yl]-3-(4-fluorophenyl)urea] | more than the reference H2S donor ADT | significant fluorescence signal increase at all tested concentrations | very high levels of H2S release | able to counterbalance the LPS-induced increase | submicromolar concentration | 60 ± 20 nM
N#Cc1ccc(C[C@H](NC(=O)Nc2ccc(Br)cc2)C(=S)N2CCc3ccccc32)cc1 [8b, (S)-1-(4-Bromophenyl)-3-[3-(4-cyanophenyl)-1-(indolin-1-yl)-1-thioxopropan-2-yl]urea] |  | not statistically significant |  | able to counterbalance the LPS-induced increase | submicromolar concentration | 7 ± 3 nM

From article PMC12291851, “Hydrogen Sulfide (H2S)-Donating Formyl Peptide Receptor 2 (FPR2) Agonists: Design, Synthesis, and Biological Evaluation in Primary Mouse Microglia Culture” (Antioxidants, 2025)
